Measurements taken from US5382596A, “Substituted 2-aminotetralins” (priority 1993, dated 1995).
Where a name gives a salt, the structure may show the parent alone. Read-outs that look alike come from different tables or passages of the source.

How the values were obtained:
[1] = system: denervated supersensitive postsynaptic dopamine receptors; experiment: In vivo functional test: contralateral circling in rats with unilateral 6-hydroxydopamine lesions of the substantia nigra; design: species or system rat; details: for ED50: contralateral circling, rats, unilateral 6-hydroxydopamine lesion
Excerpt: Dopamine agonists produce contralateral circling behavior in rats in which unilateral lesions of the substantial nigra are made by prior injection of 6-hydroxydopamine. The circling is thought to be mediated by stimulation of denervated supersensitive postsynaptic dopamine receptors (Marshall and Ungerstedt, 1977, Eur. J. Pharmacol., 41:361-367).

adrenergic α2 receptor = molecular target: T1, adrenergic α2 receptor (Rattus norvegicus, UniProt P22909); experiment: Adrenergic α2 in vitro functional test (rat vas deferens, inhibition of twitch); assay type: biochemical
T1 sequence (P22909 1-465): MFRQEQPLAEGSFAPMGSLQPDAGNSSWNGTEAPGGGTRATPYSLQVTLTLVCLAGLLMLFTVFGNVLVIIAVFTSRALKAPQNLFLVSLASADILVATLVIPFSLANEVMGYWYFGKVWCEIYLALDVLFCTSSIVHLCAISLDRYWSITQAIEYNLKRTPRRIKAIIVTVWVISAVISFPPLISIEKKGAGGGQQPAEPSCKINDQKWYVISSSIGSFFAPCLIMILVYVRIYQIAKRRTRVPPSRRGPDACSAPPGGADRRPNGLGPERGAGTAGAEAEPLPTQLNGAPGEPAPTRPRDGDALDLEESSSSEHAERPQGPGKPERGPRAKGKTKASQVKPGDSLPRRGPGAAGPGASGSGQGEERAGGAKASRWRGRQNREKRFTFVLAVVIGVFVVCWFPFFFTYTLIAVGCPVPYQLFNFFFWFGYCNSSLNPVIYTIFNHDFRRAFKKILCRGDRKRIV
Procedure: Vasa deferentia from male Sprague-Dawley rats weighing between 150-250 g were removed and placed in isolated organ baths containing Krebs-Henseleitsolution under a resting tension of 1 g. All other set up conditions were identical to those used for the mouse was deferens. Tissues were pretreated with propranolol (1 μM), ascorbic acid (100 μM) and the α1 -adrenergic antagonist prazosin (0.3 or 1 μM) for 60 min before the addition of test compound.

Dopamine D2 receptor [2] = molecular target: Dopamine D2 receptor (Bos taurus, UniProt P20288); experiment: biochemical; assay type: binding, bovine
Procedure: (§1) Membranes were prepared using a Brinkmann Polytron and collected by centrifugation. Membrane sources were bovine caudate (D2,D1) or rat cortex (α2). The membranes were washed, resuspended, and incubated at 37° C. for 30 min. in either the presence (rat cortex) of 1 μ/ml adenosine deaminase or absence (bovine caudate) of 0.1 μ/ml adenosine deaminase. Membranes were centrifuged, washed once and frozen at -70° C. until used. Immediately before use, the membranes were thawed, washed once, and resuspended to a final concentration of 0.5-2 mg/ml. Assays were initiated by addition of membranes. For D2 and D1 assays, the radioligands and conditions used were ^3 H-Spiperone (RT, 75 min.) and ^3 H-SCH23390 (37° C., 15 min.), respectively. For α2 assays, ^3 H-PAC (RT, 30 min.) was used Assays were terminated by filtration using a Brandel cell harvester over Whatman GF/B filters that had been pretreated with 0.1% polyethylenimine. […]

Dopamine D1 receptor = Dopamine D1 receptor (Bos taurus, UniProt Q95136); experiment: biochemical; assay type: binding, bovine
Procedure: as §1

dopamine D2 receptor [3] = molecular target: dopamine D2 receptor (Mus musculus, UniProt P61168); experiment: biochemical; assay type: biochemical
Procedure: Vasa deferentia from male BALB/C mice weighing approximately 30 g were removed and placed in isolated organ baths containing magnesium-free modified Krebs-Henseleit solution which was gassed with 95% O2 and 5% CO2 and maintained at 37° C. Tissues were set up under resting tension of 0.5 g and stimulated electrically at 60 volts, 0.1 Hz and 1 msec duration to produce a series of twitch responses. Tissues were pretreated with propranolol (1 μM) to block β-adrenoceptors, idazoxan (3 μM) to block α2 -adrenoceptors receptors, and ascorbic acid (100 μM) for 60 min before the addition of test compound.

[4] = concentration that produces 50% of the maximal inhibition of twitch, rat vas deferens, read-out: a2 A50
[5] = bovine caudate membranes, 3H-Spiperone, RT, 75 min, read-out: D2 K1
[6] = bovine caudate membranes, 3H-SCH23390, 37° C., 15 min, read-out: D1 K1
[7] = concentration that produces 50% of the maximal inhibition of twitch, mouse vas deferens, read-out: D2 A50

Chain of Dopamine D2 receptor (P20288 whole entry): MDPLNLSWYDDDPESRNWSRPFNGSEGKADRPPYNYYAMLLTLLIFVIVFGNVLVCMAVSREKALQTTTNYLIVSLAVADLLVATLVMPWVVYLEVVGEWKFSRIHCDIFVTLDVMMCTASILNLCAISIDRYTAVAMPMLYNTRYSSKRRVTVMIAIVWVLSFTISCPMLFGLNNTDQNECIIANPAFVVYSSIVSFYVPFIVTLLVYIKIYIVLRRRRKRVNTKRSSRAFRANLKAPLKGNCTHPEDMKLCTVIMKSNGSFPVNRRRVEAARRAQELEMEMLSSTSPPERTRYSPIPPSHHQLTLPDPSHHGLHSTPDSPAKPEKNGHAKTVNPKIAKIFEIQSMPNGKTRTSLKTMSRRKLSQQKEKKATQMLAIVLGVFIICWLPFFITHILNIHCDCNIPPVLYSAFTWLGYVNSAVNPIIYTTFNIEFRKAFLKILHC
Chain of Dopamine D1 receptor (Q95136 whole entry): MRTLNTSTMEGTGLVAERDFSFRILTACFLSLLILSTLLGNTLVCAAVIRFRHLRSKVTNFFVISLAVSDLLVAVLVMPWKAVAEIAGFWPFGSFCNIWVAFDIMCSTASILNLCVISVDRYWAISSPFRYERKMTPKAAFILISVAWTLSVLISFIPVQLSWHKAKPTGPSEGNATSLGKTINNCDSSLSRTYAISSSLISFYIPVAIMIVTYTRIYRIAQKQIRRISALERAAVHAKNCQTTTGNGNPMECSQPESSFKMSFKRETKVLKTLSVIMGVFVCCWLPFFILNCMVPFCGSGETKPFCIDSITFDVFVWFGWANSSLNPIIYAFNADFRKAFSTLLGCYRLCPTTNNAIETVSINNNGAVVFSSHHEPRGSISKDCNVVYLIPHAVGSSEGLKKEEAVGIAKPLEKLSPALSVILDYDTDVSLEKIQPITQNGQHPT
Chain of dopamine D2 receptor (P61168 whole entry): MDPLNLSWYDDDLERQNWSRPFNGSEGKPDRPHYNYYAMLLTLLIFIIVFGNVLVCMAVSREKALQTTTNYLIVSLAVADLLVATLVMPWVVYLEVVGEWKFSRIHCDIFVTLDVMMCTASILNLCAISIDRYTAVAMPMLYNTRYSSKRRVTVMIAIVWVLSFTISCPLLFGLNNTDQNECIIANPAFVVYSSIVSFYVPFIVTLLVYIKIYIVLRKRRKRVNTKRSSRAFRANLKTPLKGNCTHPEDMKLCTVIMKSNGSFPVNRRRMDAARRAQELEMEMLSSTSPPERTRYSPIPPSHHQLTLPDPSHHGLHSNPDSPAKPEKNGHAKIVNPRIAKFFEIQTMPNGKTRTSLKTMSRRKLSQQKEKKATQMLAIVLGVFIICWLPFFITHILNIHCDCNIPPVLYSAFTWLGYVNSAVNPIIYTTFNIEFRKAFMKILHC

| Compound | ED50 [1] | EC50 (adrenergic α2 receptor; [4]) | Selectivity Ratio (D1 K1/D2 K1) (Dopamine D2 receptor [2]) | Ki (Dopamine D2 receptor [2]; [5]) | Ki (Dopamine D1 receptor; [6]) | Specificity Ratio (a2 A50/D2 A50) (dopamine D2 receptor [3]) | EC50 (dopamine D2 receptor [3]; [7]) | EC50 (adrenergic α2 receptor) | Ki (Dopamine D2 receptor [2]) | Ki (Dopamine D1 receptor) | EC50 (dopamine D2 receptor [3]) | in vivo functional potency (in words) ([1]; rat, in vivo) | dopamine D2 receptor affinity (in words) (Dopamine D2 receptor [2]) | D2 receptor selectivity (in words) (Dopamine D2 receptor [2]; D2 vs. D1) | dopamine D2 receptor in vitro functional activity/potency (in words) (dopamine D2 receptor [3]) | D2 receptor specificity (in words) (dopamine D2 receptor [3]; D2 vs. α2) |
| --- | --- | --- | --- | --- | --- | --- | --- | --- | --- | --- | --- | --- | --- | --- | --- | --- |
| CCCCCOCCN(CCC)[C@H]1CCc2c(ccc(O)c2O)C1 [Example 10] | 0.030 µmol/kg | 93.3 nM | 46 | 54 nM | 2450 nM | 1000 | 0.093 nM | – | – | – | – | – | – | – | – | – |
| CCCN(CCC1CCOC1)[C@H]1CCc2c(ccc(O)c2O)C1 (some centres unmarked) [Example 14] | 0.030 µmol/kg | 14.8 nM | 34 | 195 nM | 6610 nM | 71 | 0.209 nM | – | – | – | – | – | – | – | – | – |
| CCCCOCCN(CCC)[C@H]1CCc2c(ccc(O)c2O)C1 [Example 8, (S)-6-[[2-(butoxy)ethyl]propylamino]-5,6,7,8-tetrahydro-1,2-naphthalenediol] | 0.004 µmol/kg | 107 nM | 52 | 112 nM | 5890 nM | 398 | 0.269 nM | – | – | – | – | – | – | – | – | – |
| CCCN(CCC1CCCCO1)[C@H]1CCc2c(ccc(O)c2O)C1 (some centres unmarked) [Example 12] | 0.030 µmol/kg | 199 nM | 224 | 25 nM | 5490 nM | 1000 | 0.2 nM | – | – | – | – | – | – | – | – | – |
| CCCN(CC1CCOC1)[C@H]1CCc2c(ccc(O)c2O)C1 (some centres unmarked) [Example 15] | 0.009 µmol/kg | 16.6 nM | 1 | 1100 nM | 1100 nM | 118 | 0.141 nM | – | – | – | – | – | – | – | – | – |
| CCCOCCN(CCC)[C@H]1CCc2c(ccc3c2OCO3)C1 [Example 28] | 0.100 µmol/kg | – | – | – | – | – | – | – | – | – | – | – | – | – | – | – |
| CCCN(CCOC(C)C)[C@H]1CCc2c(ccc3c2OCO3)C1.Cl [Example 26, (S)-6,7,8,9-Tetrahydro-N-[2-(1-methylethoxy)ethyl]-N-propylnaphtho[1,2-d]-1,3-dioxol-7-amine, hydrochloride] | 0.030 µmol/kg | – | – | – | – | – | – | – | – | – | – | – | – | – | – | – |
| CCCN(CCC1CCCO1)[C@H]1CCc2c(O)cccc2C1 (some centres unmarked) [Example 19] | 0.020 µmol/kg | 1740 nM | 14 | 110 nM | 1510 nM | 6310 | 0.275 nM | – | – | – | – | – | – | – | – | – |
| CCCN(CCC1CCCCO1)[C@H]1CCc2c(O)cccc2C1 (some centres unmarked) [Example 23] | 0.010 µmol/kg | > 10000 nM | 68 | 110 nM | 7410 nM | > 22900 | 0.437 nM | – | – | – | – | – | – | – | – | – |
| CCCN(CCOC1CCCC1)[C@H]1CCc2c(ccc(O)c2O)C1 [Example 6] | 0.008 µmol/kg | 87.1 nM | 98 | 51 nM | 5010 nM | 537 | 0.162 nM | – | – | – | – | – | – | – | – | – |
| CCCN(CCOC(C)(C)C)[C@H]1CCc2c(ccc3c2OCO3)C1 [Example 29] | 0.040 µmol/kg | – | – | – | – | – | – | – | – | – | – | – | – | – | – | – |
| CCCN(CCOC1CCCC1)[C@H]1CCc2c(O)cccc2C1 [Example 16] | 0.090 µmol/kg | > 10000 nM | 129 | 62 nM | 7940 nM | > 19500 | 0.513 nM | – | – | – | – | – | – | – | – | – |
| CCCN(CCC1CCCO1)[C@H]1CCc2c(ccc(O)c2O)C1 (some centres unmarked) [Example 11] | 0.010 µmol/kg | 79.4 nM | 141 | 30 nM | 4270 nM | 62 | 1.29 nM | – | – | – | – | – | – | – | – | – |
| CCCN(CCC)[C@H]1CCc2c(ccc(O)c2O)C1 [Example 40, (S)-5,6-dihydroxy-2-(di-n-propyl)aminotetralin, reference compound] | 0.009 µmol/kg | – | – | – | – | – | – | 12.5 nM | – | – | – | – | – | – | – | – |
| CCCN(CCOC(C)C)[C@H]1CCc2c(ccc3oc(=O)oc23)C1 [Example 38, (S)-5,6,7,8-Tetrahydro-6-[[2-(1-methylethoxy)ethyl]-propylamino]-1,2-naphthalenediol, cyclic carbonate, hydrochloride] | 0.005 µmol/kg | – | – | – | – | – | – | – | – | – | – | – | – | – | – | – |
| CCCOCCN(CCC)[C@H]1CCc2c(ccc(O)c2O)C1 [Example 7, (S)-5,6,7,8-tetrahydro-6-[[2-(propoxy)ethyl]propylamino]-1,2-naphthalenediol] | 0.002 µmol/kg | 148 nM | 36 | 129 nM | 4680 nM | 186 | 0.794 nM | – | – | – | – | – | – | – | – | – |
| CCCN(CCOCC1CC1)[C@H]1CCc2c(ccc(O)c2O)C1 [Example 3] | 0.007 µmol/kg | 195 nM | 74 | 65 nM | 4790 nM | 1860 | 0.105 nM | – | – | – | – | – | – | – | – | – |
| CCCN(CC1CCCCO1)[C@H]1CCc2c(O)cccc2C1 (some centres unmarked) [Example 20] | 0.030 µmol/kg | 190 nM | 7 | 1070 nM | 7080 nM | 191 | 1 nM | – | – | – | – | – | – | – | – | – |
| CCCN(CCC)C1CCc2c(O)cccc2C1 (centres unmarked) [Example 39, 5-hydroxy-2-(di-n-propyl)aminotetralin, reference compound] | 0.010 µmol/kg | – | 5 | – | – | 120 | – | 257 nM | 790 nM | 3800 nM | 2.14 nM | – | – | – | – | – |
| CCCN(CCCOC)[C@H]1CCc2c(O)cccc2C1 [Example 41, (S)-5,6,7,8-tetrahydro-6-[(3-methoxypropyl)propylamino]-l-naphthalenol, reference compound] | 0.020 µmol/kg | 234 nM | 14 | 790 nM | 11000 nM | 257 | 0.91 nM | – | – | – | – | – | – | – | – | – |
| CCCN(CCOC(C)(C)C)[C@H]1CCc2c(ccc(O)c2O)C1 [Example 9, (S)-6-[[2-(1,1-dimethylethoxy)ethyl]propylamino]-5,6,7,8-tetrahydro-1,2-naphthalenediol] | 0.004 µmol/kg | 144 nM | 166 | 54 nM | 8910 nM | 1620 | 0.089 nM | – | – | – | – | high in vivo functional potency | high affinity | high affinity, selectivity | high affinity, selectivity, specificity, and functional potency | high affinity, selectivity, specificity |
| CCN(CCC1CCCO1)[C@H]1CCc2c(O)cccc2C1 (some centres unmarked) [Example 25] | – | > 10000 nM | 57 | 117 nM | 6610 nM | > 14100 | 0.708 nM | – | – | – | – | – | – | – | – | – |
| CCCN(CCOC(C)C)[C@H]1CCc2c(ccc(O)c2O)C1.Cl [Example 1, (S)-5,6,7,8-Tetrahydro-6-[[2-(1-methylethoxy)ethyl]-propylamino]-1,2-naphthalenediol, hydrochloride] | 0.004 µmol/kg | 218 nM | 112 | 65 nM | 7240 nM | 1480 | 0.148 nM | – | – | – | – | – | – | – | – | – |
| CCCN(CCOCC)[C@H]1CCc2c(ccc3c2OCO3)C1 [Example 27] | 0.100 µmol/kg | – | – | – | – | – | – | – | – | – | – | – | – | – | – | – |
